# Measurements from paper PMC5537589, “A peptide-based viral inactivator inhibits Zika virus infection in pregnant mice and fetuses” (Nature Communications, 2017).
# Where no end group is shown, it is not given here.
# Columns and labels:
# mouse red blood cells = conditions: concentration as high as 100 μM; 2% mouse RBC, 1 h, 37 °C; A560
# BHK21 cells = conditions: concentration as high as 50 μM, 24 h, 37 °C, CCK8
# [1] = In vivo fluorescence imaging of distribution in pregnant ICR mice and fetuses
# [2] = rat, in vivo, iv, 10 mg/kg
# [3] = Safety of Z2 for pregnant ICR mice and fetuses; format: in vivo
# Vero cells = conditions: concentration as high as 50 μM, 24 h, 37 °C, CCK8
# [4] = 100 μg Z2-Cy5 i.v.; male ICR mice
# in vivo = conditions: SD, rat, iv, 10 mg kg-1
# Huh7 cells = conditions: concentration as high as 50 μM, 24 h, 37 °C, CCK8
# [5] = SD rats, n=3, serum
# [6] = test system: ZIKV-infected BHK21 cells; format: binding, Zika virus; conditions: peer review file
# Procedure: Supplementary Figure 4: Binding of Z2-Cy5 to ZIKV-infected BHK21 cells. (a) Immunofluorescence staining assay.
# Scale bar = 100 μm. (b) Flow cytometry assay. After the incubation of ZIKV or mock infected BHK21 cells with Z2-Cy5, the cells were washed five times and processed by a BD Accuri C6 Flow Cytometer.
# BHK21 cells. As shown in Supplementary Figure 4, E protein (green, stained by anti-E mAb 4G2) and Z2-Cy5 (red) overlapped and colocated together (Supplementary Figure 4A). In the flow cytometry assay (Supplementary Figure 4B), Z2-Cy5 bound with 63.5% […]
# ZIKV-infected BHK21 cells.
# Supplementary Figure 4: Binding of Z2-Cy5 to ZIKV-infected BHK21 cells. (A) […]
# Scale bar = 100 μm. (B) Flow cytometry assay. After the incubation of ZIKV- or mock- […]
# The result was added to the revised manuscript: “Similar results were […]
# obtained from ZIKV-infected BHK21cells (Supplementary Figure 4).”
# The related methods were added in the revised manuscript:
# “To test the binding of Z2 to ZIKV- infected BHK21 cells, BHK21 cells seeded in cover slips were ZIKV or mock infected, fixed with 4 % PFA, perforated by 0.2% Triton X-100 and blocked with 3% BSA. The cells were then incubated with anti-E mAb 4G2.
# After 5 washes, the cells were incubated with Alexa Fluor 488-labeled donkey anti-mouse antibody and Z2-Cy5 at RT for 1 h. […]
# ZIKV virions = assay: Sucrose density gradient assay; conditions: 100 μM peptide in 1% DMSO or 1% Triton X-100, 37 °C 2 h
# DENV-2 = conditions: 12 h
# YFV 17D = conditions: read-out: IC50, inhibition of YFV 17D infection; BHK21 cells
# ZIKV = assay: Plaque reduction assay in BHK21 cells; format: cell-based, Zika virus; conditions: n=3
# Procedure: Supplementary Figure 2: Plaque reduction assay to determine ZIKV infection in BHK21 cells. (a) Plaque reduction assay for Z2. ZIKV was incubated with Z2 or Z2-scr in diﬀerent concentrations for 1.5 h. Then the mixture was added to BHK21 cells seeded in 6-well plates. After 1.5 h, the viral inoculum was removed and 2.5 ml DMEM with 2% FBS and 1% low melting-point agarose overlaid the cells. Four to five days later, the cells were fixed with 4% PFA and stained with 1% crystal violet overnight. (b) Plaque reduction curves. Plaques were counted and percentage of plaque reduction was […]
# [7] = 10-120 mg kg−1 i.v., before and 4 h, 1, 3, 5 days after third injection, P>0.05
substance,measurement,setting,value
MAVLGDTAWDFGSVGGALNSLGKGIHQIFGAAF [Z2] [listing 1 of 2 here],cytotoxic effect on red blood cells (hemoglobin release),mouse red blood cells,no cytotoxic effect
same,cytotoxic effect,BHK21 cells,no cytotoxic effect
same,penetration of the placental barrier,"[1]; injected intravenously or intraperitoneally, pregnant ICR mice",can penetrate through the placental barrier
same,AUC(0-inf),[2],0.557 µg·h/mL
same,AUC(0-t),[2],0.548 µg·h/mL
same,Tmax,[2],0.25 h
same,average litter size of the offspring,"[3]; 10 mg kg−1 i.v. daily for 3 days, n=5, PBS 10.4±1.5",10.2±1.6
same,average litter size of the offspring,"[3]; 20 mg kg−1 i.v. daily for 3 days, n=6",10.5±2.0
same,average litter size of the offspring,"[3]; 40 mg kg−1 i.v. daily for 3 days, n=5",10.4±2.1
same,average litter size of the offspring,"[3]; 80 mg kg−1 i.v. daily for 3 days, n=5",10.6±1.1
same,average litter size of the offspring,"[3]; 120 mg kg−1 i.v. daily for 3 days, n=5",10.8±2.6
same,safe dose relative to dose protecting against ZIKV in vivo,[3]; 120 mg kg−1 versus 10 mg kg−1,11 fold
same,serum ALT versus PBS group,[3]; [7],no significant difference
same,serum creatinine versus PBS group,[3]; [7],no significant difference
same,"histopathology (H&E) of livers, kidneys, brains, spleens of mothers and pups","[3]; 10-120 mg kg−1 i.v., versus PBS",no pathological abnormality
same,body weight changes of mothers and pups,"[3]; i.v. 10, 20, 40, 80, 120 mg kg−1 daily for 3 days versus PBS",almost the same among the six groups
same,cytotoxic effect,Vero cells,no cytotoxic effect
same,"distribution to genital organs (testis, seminal vesicle, epididymis)",[4],could distribute to the genital organs
same,half-life,in vivo,2.77 h
same,cytotoxic effect,Huh7 cells,no cytotoxic effect
same,"Kel, elimination constant","[5]; 10 mg kg-1 i.v. tail vein, LC-MS/MS, noncompartmental",0.250 h⁻¹
same,Cmax,"[5]; 10 mg kg-1 i.v., concentration data dose-normalized",0.7546 µg/mL
"Z2-Cy5: Z2 labeled with Cy5 (MAVLGDTAWDFGSVGGALNSLGKGIHQIFGAAF; also: Cy5 label, site not given here)",average radiant efficiency in uteruses versus PBS,"[1]; 100 μg i.v., 1 h, P=0.0148",significantly higher
same,average radiant efficiency in liver versus PBS,"[1]; 100 μg i.v., 1 h, P=0.0275",significantly higher
same,average radiant efficiency in bladder versus PBS,"[1]; 100 μg i.v., 1 h, P=0.0426",significantly higher
same,average radiant efficiency in fetuses versus PBS,"[1]; 100 μg i.v., 1 h, n=9 fetuses, P<0.0001",significantly higher
same,ZIKV-infected BHK21 cells bound by Z2-Cy5 (flow cytometry),[6],63.5%
Triton X-100,fraction with peak of viral genomic RNA,ZIKV virions; RT-qPCR,1 fraction No.
same,fraction with peak of E protein,ZIKV virions; western blot,7 fraction No.
MAVLGDTAWDFGSVGGALNSLGKGIHQIFGAAF [Z2] [listing 2 of 2 here],IC50,DENV-2,~4 µM
same,IC50,YFV 17D,~5 µM
same,IC50,ZIKV,2.61 ± 0.46 µM
